Paper PMC10269561, “Absence of Clinically Meaningful Drug-Drug Interactions with Rezafungin: Outcome of Investigations” (Microbiology Spectrum, 2023)
Where two headings read alike, the source gives them in different places.

Experiments:
[1] = Study 2: phase 1 open-label crossover DDI study, plasma PK of oral immunosuppressant/oncology drugs alone vs with i.v. rezafungin; conditions: for Magnitude of decrease in Cmax with rezafungin vs drug alone / AUC0–t, geometric mean ratio (drug + rezafungin / drug alone) / AUC0–∞, geometric mean ratio (drug + rezafungin / drug alone) / Cmax, geometric mean ratio (drug + rezafungin / drug alone): mycophenolic acid analyte for mycophenolate mofetil; for AUC0–t, geometric mean ratio (drug + rezafungin / drug alone) / AUC0–∞, geometric mean ratio (drug + rezafungin / drug alone) / Cmax, geometric mean ratio (drug + rezafungin / drug alone): rezafungin 200 mg i.v., geometric LSM ratio x 100, ANOVA
Procedure: (§1) Both were phase 1, single-center, open-label, crossover inpatient studies that were conducted in the United States in healthy adults (study 1, aged 26 to 55 years; study 2, aged 21 to 59 years). The studies were compliant with the International Council for Harmonisation of Technical Requirements for Pharmaceuticals for Human Use E6 guideline for good clinical practice ([54]) and the Declaration of Helsinki. The study protocols were approved by the institutional review board associated with the study site, and all subjects provided written informed consent.
(§2) After screening, subjects were admitted to the CRU on day −17 (prior to the first rezafungin dose) and were discharged on day 22. Rezafungin was dosed via i.v. infusion over 1 h at 400 mg on day 1 and 200 mg on day 8 and day 15. The oral drugs to be tested for interactions were each administered twice on a schedule designed to allow washout between doses: once alone and once while receiving rezafungin (Fig. 4B). The total duration of treatment was approximately 84 days, which included 45 days of screening and 39 days of treatment in the CRU.
(§3) In study 1, predose PK blood samples were collected on each dosing day ≤60 min prior to the administration of the substrate drugs with or without rezafungin. Multiple blood samples were collected relative to each dose, with collection times ranging from 15 min to 168 h postdose, depending on the PK profile of each probe substrate drug (Table S5). For study 2, multiple blood samples were collected, and the timing of collection varied according to the PK profile of each coadministered drug from predose to 96 h postdose (Table S6). PK blood samples were collected for rezafungin at sample times ranging from predose to 168 h postdose.
(§4) For both studies, validated liquid chromatography-tandem mass spectrometry (LC-MS/MS) methods were used for PK assessments to analyze the concentrations of rezafungin and coadministered drugs. All plasma concentrations and actual blood sampling times were subjected to noncompartmental PK analysis. PK parameter calculations were performed using noncompartmental analysis (NCA) (Phoenix WinNonlin version 8.0 or higher). The PK parameters analyzed included Cmax; the time to reach the maximum observed plasma concentration (Tmax); AUC0–t (using the log-linear trapezoidal rule, where t was the last time point with a measurable concentration); AUC0–∞ (calculated as AUC0–t + Clast/λz); the AUC from 0 to 168 h (AUC0–168); the percentage of AUC0–∞ extrapolated (AUC%Extrap); the terminal elimination rate constant, determined by linear regression of the terminal linear segment of the log concentration-versus-time curve (λz); and the elimination half-life (t1/2), calculated as ln(2)/λz.
(§5) The primary analysis of the drug interaction effect on substrate drugs following rezafungin administration was assessed by the ratio of the geometric least-squares (LS) mean of each substrate drug administered with rezafungin to that without rezafungin. […] PK parameters were statistically analyzed using an analysis of variance (ANOVA) model. […] However, noncompliance with these no-effect boundaries was not considered evidence of a significant DDI. Statistical analyses were performed using SAS (version 9.4) and the mixed procedure. Adverse events were descriptively summarized.

[2] = Study 2 safety and tolerability (TEAEs); conditions: Study 2; one subject each
Procedure: as §2
In both studies, the safety population included all subjects who received any amount of the study drug. In study 1, the rezafungin safety population included all subjects who received any amount of rezafungin. Safety assessments included vital signs (temperature, heart rate, blood pressure, and respiratory rate), safety laboratory evaluations (hematology assessment, serum chemistry panel, and urinalysis), physical examinations (complete and symptom directed), and EKGs.
Microbiology Spectrum Supplementary materials
Abbreviations: TEAE = treatment-emergent adverse event.
N = number of subjects in the safety population; n = number of subjects in a sample.
Notes: Each TEAE was counted only once for each subject within each System Organ Class and Preferred Term.

[3] = Procedure: as §1
After screening, subjects were admitted to the clinical research unit (CRU) prior to the first dose of rezafungin (from day −22) and were discharged from the CRU on day 22. Nine oral substrate drugs were administered as part of a cocktail containing two or more drugs once before and once after receiving rezafungin on a schedule designed to allow the washout of the drugs in the cocktail between doses and limit interactions with other drugs (Fig. 4A). […] A loading dose of rezafungin for injection (600 mg) was administered over 1 h on day 1, followed by two once-weekly 400-mg doses over 1 h on days 10 and 15. Due to a short delay in the availability of the investigation study drug, the second once-weekly dose of rezafungin and the second set of oral substrate drugs were administered on day 10 instead of day 8, although the time between doses remained sufficient for all originally planned PK samplings through 96 h postdose and for the adequate washout of the substrate drugs. The total duration of treatment was up to 89 days, including 45 days of screening and 44 days of treatment in the CRU.
as §3, §4, §5

[4] = clinical study, U.S. prescribing information; cited from earlier work
[5] = Study 2, from geometric mean ratio
[6] = Study 2, healthy subjects (cohort 2), oral venetoclax 50 mg with i.v. rezafungin 200 mg (day 15), plasma, LC-MS/MS, NCA
[7] = Study 2, healthy subjects (cohort 2), oral venetoclax 50 mg without rezafungin, plasma, LC-MS/MS, NCA
[8] = Study 1, healthy subjects, oral metformin 500 mg, pitavastatin 2 mg (day 10) or caffeine 100 mg, efavirenz 50 mg, midazolam 2 mg, digoxin 0.25 mg (day 15) with i.v. rezafungin 400 mg, plasma, LC-MS/MS, NCA
[9] = Study 1, healthy subjects, oral repaglinide 1 mg, metformin 500 mg, pitavastatin 2 mg, caffeine 100 mg, efavirenz 50 mg, midazolam 2 mg or digoxin 0.25 mg without rezafungin, plasma, LC-MS/MS, NCA
[10] = Study 1, rezafungin 400 mg i.v. (day 10 or 15), geometric LSM ratio x 100, ANOVA
[11] = Study 2, healthy subjects, oral cyclosporine 200 mg, ibrutinib 280 mg or mycophenolate mofetil 500 mg (analyte mycophenolic acid) without rezafungin, plasma, LC-MS/MS, NCA
[12] = Study 2, healthy subjects, oral ibrutinib 280 mg (day 8) or mycophenolate mofetil 500 mg (day 15, cohort 1; analyte mycophenolic acid) with i.v. rezafungin 200 mg, plasma, LC-MS/MS, NCA

C=CC(=O)N1CCC[C@@H](n2nc(-c3ccc(Oc4ccccc4)cc3)c3c(N)ncnc32)C1 [Ibrutinib]
Magnitude of decrease in Cmax with rezafungin vs drug alone [1, 5]: ~17%

CC1(C)CCC(CN2CCN(c3ccc(C(=O)NS(=O)(=O)c4ccc(NCC5CCOCC5)c([N+](=O)[O-])c4)c(Oc4cnc5[nH]ccc5c4)c3)CC2)=C(c2ccc(Cl)cc2)C1 [Venetoclax]
severe TEAE deemed by the investigator to be related to the drug [2]: abdominal pain
AUC0–t, geometric LSM value, + rezafungin [1, 6]: 2,693.83 pg · h/mL
AUC0–∞, geometric LSM value, + rezafungin [1, 6]: 2,781.57 pg · h/mL
AUC0–t, geometric LSM value, alone [1, 7]: 3,004.70 pg · h/mL
AUC0–∞, geometric LSM value, alone [1, 7]: 3,082.58 pg · h/mL
Magnitude of decrease in AUC with rezafungin vs drug alone ([1]; Study 2, AUC0–t and AUC0–∞, from geometric mean ratio): ~10%
Observation, Cmax (change with rezafungin relative to drug alone) ([1]; Study 2, class symbol): ↔ (no change (the ratio of the PK parameter value varied by up to ~10%, and the 90% CI was within 80 to 125%))
AUC0–t, geometric mean ratio (drug + rezafungin / drug alone) ([1]; Study 2): 89.65%
AUC0–∞, geometric mean ratio (drug + rezafungin / drug alone) ([1]; Study 2): 90.24%
Cmax, geometric mean ratio (drug + rezafungin / drug alone) ([1]; Study 2): 94.84%

COc1c(C)c2c(c(O)c1C/C=C(\C)CCC(=O)O)C(=O)OC2 [Mycophenolic acid]
Magnitude of decrease in Cmax with rezafungin vs drug alone [1, 5]: 19%

Cc1ncc2n1-c1ccc(Cl)cc1C(c1ccccc1F)=NC2 [Midazolam]
AUC0–t, geometric LSM value, + rezafungin [3, 8]: 21.62 ng·h/mL
AUC0–∞, geometric LSM value, + rezafungin [3, 8]: 23.67 ng·h/mL
Cmax, geometric LSM value, + rezafungin [3, 8]: 8.70 ng/mL
AUC0–t, geometric LSM value, alone [3, 9]: 21.39 ng·h/mL
AUC0–∞, geometric LSM value, alone [3, 9]: 23.25 ng·h/mL
Cmax, geometric LSM value, alone [3, 9]: 9.00 ng/mL
Change in exposure of the oral probe drug on coadministration of i.v. rezafungin vs dosing alone ([3]; Study 1, 90% CIs of GMRs of Cmax, AUC0–t, AUC0–∞ within 80 to […]): did not result in statistically significant changes
Observation, Cmax (change with rezafungin relative to drug alone) ([3]; Study 1, class symbol): ↔ (no change (the ratio of the PK parameter value varied by up to ~10%, and the 90% CI was within 80 to 125%))
Observation, AUC (change with rezafungin relative to drug alone) ([3]; Study 1, class symbol, AUC0–t and AUC0–∞ unless otherwise noted): ↔ (no change (the ratio of the PK parameter value varied by up to ~10%, and the 90% CI was within 80 to 125%))
AUC0–t, geometric mean ratio (drug + rezafungin / drug alone) [3, 10]: 101.06%
AUC0–∞, geometric mean ratio (drug + rezafungin / drug alone) [3, 10]: 101.78%
Cmax, geometric mean ratio (drug + rezafungin / drug alone) [3, 10]: 96.73%

COc1c(C)c2c(c(O)c1C/C=C(\C)CCC(=O)OCCN1CCOCC1)C(=O)OC2 [Mycophenolate mofetil]
AUC0–t, geometric LSM value, alone [1, 11]: 25,299.70 ng · h/mL
AUC0–∞, geometric LSM value, alone [1, 11]: 27,954.20 ng · h/mL
Cmax, geometric LSM value, alone [1, 11]: 9,541.20 ng/mL
AUC0–t, geometric LSM value, + rezafungin [1, 12]: 25,054.90 ng · h/mL
AUC0–∞, geometric LSM value, + rezafungin [1, 12]: 28,257.00 ng · h/mL
Cmax, geometric LSM value, + rezafungin [1, 12]: 7,740.58 ng/mL
Observation, AUC (change with rezafungin relative to drug alone) ([1]; Study 2, class symbol, AUC0–t and AUC0–∞ unless otherwise noted): ↔ (no change (the ratio of the PK parameter value varied by up to ~10%, and the 90% CI was within 80 to 125%))
AUC0–t, geometric mean ratio (drug + rezafungin / drug alone) ([1]; Study 2): 99.03%
AUC0–∞, geometric mean ratio (drug + rezafungin / drug alone) ([1]; Study 2): 101.08%
Cmax, geometric mean ratio (drug + rezafungin / drug alone) ([1]; Study 2): 81.13%

Caspofungin
increase in AUC of caspofungin by cyclosporine [4]: approximately 35%
reduction of trough concentrations of caspofungin by rifampicin [4]: 30%
